Measurements taken from patent publication US7598280B2, “Heterocyclic compounds, compositions comprising them and methods of their use” (Lexicon Pharmaceuticals, Inc., priority 2007, dated 2009).

Columns and labels:
[1] = test system: lymphocytes / mature T cells; conditions: administration to rats and mice; cited from earlier work
circulating lymphocytes = assay: Measuring effects on lymphocytes in mice; assay type: in vivo
Protocol: Unless otherwise indicated, the term “circulating lymphocyte reduction factor” or “CLRF” means the decrease in the number of circulating lymphocytes in mice caused by oral administration of a single dose of a compound at 100 mg/kg, as determined by the method described in the Examples, below.
Compounds were administered by oral gavage or in drinking water. For oral dosing experiments, compounds were resuspended from crystals at 10 mg/ml in vehicle (e.g., water). Mice (F1 hybrids of 129/B6 strain) were gavaged with a single 100 mg/kg dose of compound (equivalent to 100 mpk of the free base for each compound) or a vehicle-only control, and returned to their cages. Mice were anesthetized using isofluorane eighteen hours after dosing and tissues were collected for analysis as described below. For drinking water studies, compounds were dissolved at 50 mg/L in acidified water (pH=2.8) containing 10 g/L glucose. The mice were allowed free access to compound-containing water (or glucose solution as a control) for 72 hours. At the end of 72 hours, tissues were collected for analysis.
CBC measurements were obtained as follows. Mice were anesthetized with isofluorane and blood was collected from the retroorbital plexus into EDTA blood collection tubes (Capiject-MQK, Terumo Medical Corp., Elkton, Md.). […]

S1P lyase = molecular target: T1, S1P lyase (Mus musculus, UniProt Q8R0X7); conditions: when administered to mice; cited from earlier work
T1 construct: host or cells: mice (in vivo, endogenous enzyme)
T1 sequence (Q8R0X7 1-568): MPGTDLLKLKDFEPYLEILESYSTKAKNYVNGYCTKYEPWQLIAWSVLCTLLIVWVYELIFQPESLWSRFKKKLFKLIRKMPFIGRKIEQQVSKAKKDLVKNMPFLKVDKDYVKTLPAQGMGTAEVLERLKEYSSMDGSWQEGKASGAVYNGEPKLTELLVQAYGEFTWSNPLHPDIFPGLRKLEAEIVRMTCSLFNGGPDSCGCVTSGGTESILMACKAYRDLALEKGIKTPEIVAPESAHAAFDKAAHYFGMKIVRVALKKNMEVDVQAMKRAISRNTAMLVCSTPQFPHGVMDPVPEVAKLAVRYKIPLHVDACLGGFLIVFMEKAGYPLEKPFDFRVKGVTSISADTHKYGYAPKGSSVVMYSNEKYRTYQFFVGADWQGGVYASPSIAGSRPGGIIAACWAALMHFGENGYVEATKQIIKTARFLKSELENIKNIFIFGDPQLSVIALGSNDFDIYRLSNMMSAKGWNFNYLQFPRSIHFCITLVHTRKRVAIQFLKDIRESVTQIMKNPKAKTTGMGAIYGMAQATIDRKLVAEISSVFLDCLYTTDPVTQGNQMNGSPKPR

immunological effects = conditions: studies in humans; cited from earlier work

| Structure (SMILES) | accumulation of mature T cells in the thymus [1] | lymphopenia [1] | effect on circulating lymphocytes (circulating lymphocytes) | S1P lyase activity (S1P lyase) | immunological effects (immunological effects) |
| --- | --- | --- | --- | --- | --- |
| CC(=O)c1nc(C(O)C(O)C(O)CO)c[nH]1 (stereo not drawn) [THI, 2-acetyl-4-tetrahydroxybutylimidazole] | causes the accumulation of mature T cells in the thymus | induces lymphopenia | capable of reducing circulating lymphocytes | inhibits S1P lyase activity | no immunological effects |
| CC(=O)c1nc(C)c([C@@H](O)[C@H](O)[C@H](O)CO)s1 [1-(4-methyl-5-((1S,2R,3R)-1,2,3,4-tetrahydroxybutyl)thiazol-2-yl)ethanone] | – | – | little or no effect | – | – |
